EPA's ToxValDB 9.5 (doi:10.2903/j.efsa.2014.3881)

Legend:
Anas platyrhynchos = settings: reproductive
Apis mellifera = settings: acute, mortality
Canidae = settings: chronic; duration: 1 years; oral; Dog Other; body weight
Colinus virginianus = settings: acute; oral; diet; mortality
Coturnix japonica = settings: acute; oral; mortality
Daphnia magna = settings: chronic/long-term; duration: 21 days; reproduction
Mus musculus = settings: chronic; duration: 18 months; body weight

Question: Which results are given for COC(=O)c1ccc(C(F)(F)F)nc1S(=O)(=O)[N-]C(=O)Nc1nc(OC)cc(OC)n1.[Na+] [Flupyrsulfuron-methyl sodium]?
Answer: NOEL (Anas platyrhynchos): 26 mg/kg-day; LD50 (Apis mellifera; dermal): > 250 µg/piece; LD50 (Apis mellifera; oral, unspecified): 119 µg/piece; NOAEL (Canidae): 13.6 mg/kg-day; LD50 (Colinus virginianus): > 1610 mg/kg-day; LD50 (Coturnix japonica): > 2250 mg/kg-day; NOEC (Daphnia magna): 16 mg/L; NOAEL (Mus musculus): 3.51 mg/kg-day; LC50 (Oncorhynchus mykiss; acute, duration: 96 hours, mortality): 470 µg/mL; NOEC (Oncorhynchus mykiss; chronic/long-term, duration: 90 days, growth): 9.2 mg/L; LD50 (Rattus norvegicus; acute, mortality): > 2500 mg/kg-day; NOAEL (Rattus norvegicus; developmental, development): 20 mg/kg-day; LC50 (Tagia sp.; acute, duration: 14 days, mortality): > 1000 mg/kg; NOEC (Tagia sp.; chronic/long-term, duration: 8 weeks): 0.065 mg/kg
